From patent publication US5003055A, “Anthracycline derivatives having inhibitory activity against reverse transcriptase of human immunodeficiency virus” (priority 1987, dated 1991)
In brackets after ≈: the same amount, converted by molar mass. Counter-ions that a name gives are not always drawn. Like-named read-outs stand apart in the source and are kept apart here.

Columns and labels:
[1] = tested on: mouse lymphocytic leukemia P-388 cells; test: Cytotoxicity against P-388 cells (proliferation, MTT technique); type: cell-based; settings: for IC50: Mus musculus, P388, 48 h, read-out: Cytotoxicity against P-388 cells (IC50, μg/ml) (B); for Cytotoxicity against P-388 cells (IC50, μg/ml) (B): 2880 min
Protocol: (b) On the other hand, the cytotoxicity was measured in the following manner. The novel anthracycline derivative of this invention was added to 5×10^3 cells of mouse lymphocytic leukemia P-388 in an incubation medium. After stirring, themixture was incubated Forty-eight hours later, the rate (%) of proliferation of the cells was measured by the MTT technique.

[2] = background statement; cited from earlier work
[3] = molecular target: HIV reverse transcriptase (Human immunodeficiency virus type 1 group M subtype B, UniProt P04585); test: biochemical; settings: for IC50: HIV reverse transcriptase inhibitory activity (IC50, μg/ml) (A), 37° C., 30 minutes, HIV lysate; for Enzyme inhibitory activity/cytotoxicity ratio (A)/(B): ratio of IC50 HIV reverse transcriptase (A) to IC50 P-388 (B)
Protocol: (a) After treating a supernatant of a culture of HIV-infected T4-cells (Molt 4/HTLV 1116/H9) with 9.5% polyethylene glycol for 3 hours, the supernatant was centrifuged at 2500 rpm for 30 minutes to obtain a precipitate. This precipitate was lysed with a mixture comprising 33.3% glycerol, […] tris-HCl (pH 7.5), 533 mM KCl, 0.32% Triton X-100 and 3.3 mM dithiothreitol, so as to prepare an HIV lysate (2.5×10^6 PFU/ml) The activity of the reverse transcriptase present in the HIV lysate thus prepared was determined in terms of the up-take rate of [α-^32 P]dATP during the synthesis of DNA, with using rabbit-β-globin mRNA and oligo dT as the template and primer, respectively. Thus, 1 μl of the HIV lysate was added to 9 μl of an enzymatic reaction solution comprising 50 mM tris-HCl (pH 8.3), 70 mM KCl, 10 mM MgCl2, 30 mM mercaptoethanol, 90 nM dNTPs, 3.3 μg/ml oligo dT, 8.3 mU/ml human placenta RNase inhibitor, 5 μg/ml β-globin mRNA, 0.14 mCi/ml [α-^32 P]dATP. After incubating the resultant mixture at 37° C. for 30 minutes, 10% aqueous trichloroacetic acid (TCA) was added to terminate the reaction.
After completion of the reaction, the whole reaction mixture was placed on a nitrocellulose membrane filter so as to adsorb the resultant DNA into the filter. The filter was then washed with 5% TCA and 20 mM sodium pyrophosphate to remove the unreacted [α-^32 P]dATP therefrom. The amount of the resultant DNA on the nitrocellulose membrane filter was calculated by measuring its radioactivity.
The novel anthracycline derivatives of this invention were separately added to the enzymatic reaction solution. The above experiment was repeated using the so prepared enzymatic reaction solution containing the anthracycline derivative as a test compound, so that the evaluation was made of IC50 of the test compound inhibitory to the activity of the HIV reverse transcriptase, namely the concentration of the test compound which was 50% inhibitory to the activity of the HIV reverse transcriptase.

COc1cccc2c1C(=O)c1c(O)c3c(c(O)c1C2=O)C[C@@](O)(C(=O)CO)C[C@@H]3O[C@H]1C[C@H](N)[C@H](O)[C@H](C)O1 [ADM, adriamycin, reference compound]
IC50 ([1]; P-388, 48 hours, MTT technique): 0.037 µg/mL (≈ 0.0681 µM)
toxicity (in words) [2]: high toxicity

COc1cccc2c1C(=O)c1c(O)c3c(c(O)c1C2=O)C[C@@](O)(C(=O)CO)C[C@@H]3O[C@H]1C[C@H](N)[C@H](O)[C@H](C)O1 [ADM.HCl, reference compound]
Cytotoxicity against P-388 cells (IC50, μg/ml) (B) ([1]; P-388, 48 hours, MTT technique): 0.02 µg/mL

COCc1ccc(C(=O)OCC(=O)[C@]2(O)Cc3c(O)c4c(c(O)c3[C@@H](O[C@H]3C[C@H](N)[C@H](O)[C@H](C)O3)C2)C(=O)c2c(OC)cccc2C4=O)cc1OC [NOVA-1, 14-O-(3-methoxy-4-methoxymethylbenzoyl)adriamycin]
IC50 [3]: 41.6 µM
Enzyme inhibitory activity/cytotoxicity ratio (A)/(B) [3]: 103
IC50 ([1]; P-388, 48 hours, MTT technique): 0.29 µg/mL (≈ 0.402 µM)

CCCCCCOCc1ccc(C(=O)OCC(=O)[C@]2(O)Cc3c(O)c4c(c(O)c3[C@@H](O[C@H]3C[C@H](N)[C@H](O)[C@H](C)O3)C2)C(=O)c2c(OC)cccc2C4=O)cc1OCCCCCC [NOVA-2, 14-O-(3-n-hexyloxy-4-n-hexyloxymethylbenzoyl)adriamycin]
IC50 [3]: 19.7 µM
Enzyme inhibitory activity/cytotoxicity ratio (A)/(B) [3]: 35
IC50 ([1]; P-388, 48 hours, MTT technique): 0.48 µg/mL (≈ 0.557 µM)

CCCCCCCCCCCOCc1ccc(C(=O)OCC(=O)[C@]2(O)Cc3c(O)c4c(c(O)c3[C@@H](O[C@H]3C[C@H](N)[C@H](O)[C@H](C)O3)C2)C(=O)c2c(OC)cccc2C4=O)cc1OCCCCCCCCCCC [NOVA-3.HCl, 14-O-(3-n-undecyloxy-4-n-undecyloxymethylbenzoyl)adriamycin hydrochloride]
IC50 [3]: 18.5 µM
Enzyme inhibitory activity/cytotoxicity ratio (A)/(B) [3]: 38
IC50 ([1]; P-388, 48 hours, MTT technique): 0.49 µg/mL

CCCCCCCCCCCOc1cc(C(=O)OCC(=O)[C@]2(O)Cc3c(O)c4c(c(O)c3[C@@H](O[C@H]3C[C@H](N)[C@H](O)[C@H](C)O3)C2)C(=O)c2c(OC)cccc2C4=O)ccc1CO [NOVA-4, 14-O-(3-n-undecyloxy-4-hydroxymethylbenzoyl)adriamycin]
IC50 [3]: 14.7 µM
Enzyme inhibitory activity/cytotoxicity ratio (A)/(B) [3]: 25
IC50 ([1]; P-388, 48 hours, MTT technique): 0.5 µg/mL (≈ 0.59 µM)

CCCCCCCCCCCCCCCCCCOCc1ccc(C(=O)OCC(=O)[C@]2(O)Cc3c(O)c4c(c(O)c3[C@@H](O[C@H]3C[C@H](N)[C@H](O)[C@H](C)O3)C2)C(=O)c2c(OC)cccc2C4=O)cc1OCCCCCCCCCCCCCCCCCC [NOVA-5.HCl, 14-O-(3-n-octadecyloxy-4-n-octadecyloxymethylbenzoyl)adriamycin hydrochloride]
IC50 [3]: 18.4 µM
Enzyme inhibitory activity/cytotoxicity ratio (A)/(B) [3]: 6.9
IC50 ([1]; P-388, 48 hours, MTT technique): 3.2 µg/mL

COc1cccc2c1C(=O)c1c(O)c3c(c(O)c1C2=O)C[C@@](O)(C(=O)COC(=O)c1ccc(CO)c(O)c1)C[C@@H]3O[C@H]1C[C@H](N)[C@H](O)[C@H](C)O1 [NOVA-6, 14-O-(3-hydroxy-4-hydroxymethylbenzoyl)adriamycin]
IC50 [3]: 79.3 µM
Enzyme inhibitory activity/cytotoxicity ratio (A)/(B) [3]: 370
IC50 ([1]; P-388, 48 hours, MTT technique): 0.15 µg/mL (≈ 0.216 µM)

COc1cccc2c1C(=O)c1c(O)c3c(c(O)c1C2=O)C[C@@](O)(C(=O)COC(=O)c1ccc2c(c1)OC(C)(C)OC2)C[C@@H]3O[C@H]1C[C@H](N)[C@H](O)[C@H](C)O1 [NOVA-7, 14-O-(0-isopropylidene-3-hydroxy4-hydroxymethylbenzoyl)adriamycin]
IC50 [3]: 31.3 µM
Enzyme inhibitory activity/cytotoxicity ratio (A)/(B) [3]: 121
IC50 [1]: 0.19 µg/mL (≈ 0.259 µM)

COc1ccc(C(=O)OCC(=O)[C@]2(O)Cc3c(O)c4c(c(O)c3[C@@H](O[C@H]3C[C@H](N)[C@H](O)[C@H](C)O3)C2)C(=O)c2c(OC)cccc2C4=O)cc1OC [NOVA-8, 14-O-(3,4-dimethoxybenzoyl)-adriamycin]
IC50 [3]: 26.8 µM
Enzyme inhibitory activity/cytotoxicity ratio (A)/(B) [3]: 58
IC50 ([1]; P-388, 48 hours, MTT technique): 0.33 µg/mL (≈ 0.466 µM)

CCCCCCOc1ccc(C(=O)OCC(=O)[C@]2(O)Cc3c(O)c4c(c(O)c3[C@@H](O[C@H]3C[C@H](N)[C@H](O)[C@H](C)O3)C2)C(=O)c2c(OC)cccc2C4=O)cc1OCCCCCC [NOVA-9, 14-O-(3,4-di-n-hexyloxybenzoyl)adriamycin]
IC50 [3]: 23.6 µM
Enzyme inhibitory activity/cytotoxicity ratio (A)/(B) [3]: 7.8
IC50 ([1]; P-388, 48 hours, MTT technique): 2.6 µg/mL (≈ 3.07 µM)

CCCCCCOc1ccc(C(=O)OCC(=O)[C@]2(O)Cc3c(O)c4c(c(O)c3[C@@H](O[C@H]3C[C@H](N)[C@H](O)[C@H](C)O3)C2)C(=O)c2c(OC)cccc2C4=O)cc1OCCCCCC [NOVA-9.1/2H2 SO4]
IC50 [3]: 27.1 µM
Enzyme inhibitory activity/cytotoxicity ratio (A)/(B) [3]: 4.4
Cytotoxicity against P-388 cells (IC50, μg/ml) (B) ([1]; P-388, 48 hours, MTT technique): 5.2 µg/mL

CCCCCCOc1ccc(C(=O)OCC(=O)[C@]2(O)Cc3c(O)c4c(c(O)c3[C@@H](O[C@H]3C[C@H](N)[C@H](O)[C@H](C)O3)C2)C(=O)c2c(OC)cccc2C4=O)cc1OCCCCCC [NOVA-9.HCl]
IC50 [3]: 17.7 µM
Enzyme inhibitory activity/cytotoxicity ratio (A)/(B) [3]: 4.8
Cytotoxicity against P-388 cells (IC50, μg/ml) (B) ([1]; P-388, 48 hours, MTT technique): 3.1 µg/mL

CCCCCCCCCCCOc1ccc(C(=O)OCC(=O)[C@]2(O)Cc3c(O)c4c(c(O)c3[C@@H](O[C@H]3C[C@H](N)[C@H](O)[C@H](C)O3)C2)C(=O)c2c(OC)cccc2C4=O)cc1OCCCCCCCCCCC [NOVA-10.HCl]
IC50 [3]: 16.2 µM
Enzyme inhibitory activity/cytotoxicity ratio (A)/(B) [3]: 8.9
IC50 ([1]; P-388, 48 hours, MTT technique): 1.8 µg/mL

CCCCCCCCCCCCCCCCCCOc1ccc(C(=O)OCC(=O)[C@]2(O)Cc3c(O)c4c(c(O)c3[C@@H](O[C@H]3C[C@H](N)[C@H](O)[C@H](C)O3)C2)C(=O)c2c(OC)cccc2C4=O)cc1OCCCCCCCCCCCCCCCCCC [NOVA-11.HCl]
IC50 [3]: 84.4 µM
Enzyme inhibitory activity/cytotoxicity ratio (A)/(B) [3]: 53
IC50 ([1]; P-388, 48 hours, MTT technique): 1.9 µg/mL

CCCCC(=O)Oc1ccc(C(=O)OCC(=O)[C@]2(O)Cc3c(O)c4c(c(O)c3[C@@H](O[C@H]3C[C@H](N)[C@H](O)[C@H](C)O3)C2)C(=O)c2c(OC)cccc2C4=O)cc1OC(=O)CCCC [NOVA-12.HCl]
IC50 [3]: 13 µM
Enzyme inhibitory activity/cytotoxicity ratio (A)/(B) [3]: 50
IC50 ([1]; P-388, 48 hours, MTT technique): 0.22 µg/mL
